According to PMC3945162 (Psychopharmacology, 2013):

What was measured:
hNET [1] = target: T1, hNET (Homo sapiens, UniProt P23975); settings: read-out: [3H]NE release EC50; HEK-hNET cells; ref Gatch et al., 2011; cited from earlier work
human 5-HT2A receptor [2] = target: T2, human 5-HT2A receptor (Homo sapiens, UniProt P28223); assay: IP-1 formation, HEK-5-HT2A cells; assay type: cell-based
hNET [3] = target: T1, hNET; assay: cell-based; settings: read-out: [3H]NE release % METH maximal effect
hSERT [4] = target: T3, hSERT (Homo sapiens, UniProt P31645); assay: [125I]RTI-55 binding, HEK-hSERT cells
hDAT [5] = target: T4, hDAT (Homo sapiens, UniProt Q01959); assay: [125I]RTI-55 binding, HEK-hDAT cells
hDAT [6] = target: T4, hDAT; settings: read-out: [3H]Dopamine release EC50; HEK-hDAT cells; ref Gatch et al., 2011; cited from earlier work
hDAT [7] = target: T4, hDAT; assay: [3H]Dopamine release, HEK-hDAT cells; assay type: cell-based; settings: read-out: [3H]Dopamine release % METH maximal effect
human 5-HT2C receptor [8] = target: T5, human 5-HT2C receptor (Homo sapiens, UniProt P28335); assay: biochemical; assay type: binding; settings: read-out: 5-HT2C [125I]DOI binding Ki ± sem
T5 sequence (P28335 33-458): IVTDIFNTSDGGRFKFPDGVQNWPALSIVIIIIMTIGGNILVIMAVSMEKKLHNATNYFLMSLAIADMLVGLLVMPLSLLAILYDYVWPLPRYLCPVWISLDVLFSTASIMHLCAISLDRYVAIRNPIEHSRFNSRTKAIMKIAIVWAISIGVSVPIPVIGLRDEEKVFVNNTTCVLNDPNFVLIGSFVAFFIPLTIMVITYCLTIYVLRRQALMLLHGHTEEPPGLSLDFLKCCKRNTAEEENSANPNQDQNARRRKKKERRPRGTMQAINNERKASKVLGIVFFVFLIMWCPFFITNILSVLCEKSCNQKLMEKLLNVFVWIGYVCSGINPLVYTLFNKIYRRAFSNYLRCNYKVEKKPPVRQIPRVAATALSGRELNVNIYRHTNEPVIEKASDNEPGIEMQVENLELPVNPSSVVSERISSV

human 5-HT1A receptor [9] = target: T6, human 5-HT1A receptor (Homo sapiens, UniProt P08908); assay: [35S]GTPγS binding functional assay, HEK-5-HT1A; assay type: biochemical
T6 sequence (P08908 1-422): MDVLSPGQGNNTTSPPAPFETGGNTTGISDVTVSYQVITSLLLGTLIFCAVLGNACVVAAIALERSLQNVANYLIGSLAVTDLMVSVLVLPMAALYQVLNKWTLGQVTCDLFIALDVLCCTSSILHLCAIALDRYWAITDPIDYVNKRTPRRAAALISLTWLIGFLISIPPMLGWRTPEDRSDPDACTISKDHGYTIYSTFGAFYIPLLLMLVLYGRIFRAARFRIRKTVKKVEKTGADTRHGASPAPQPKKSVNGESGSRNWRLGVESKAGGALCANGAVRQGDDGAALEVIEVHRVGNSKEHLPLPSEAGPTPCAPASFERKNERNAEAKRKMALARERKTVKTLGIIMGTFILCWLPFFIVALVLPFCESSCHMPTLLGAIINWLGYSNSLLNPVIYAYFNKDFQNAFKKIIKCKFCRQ

hDAT [10] = target: T4, hDAT; assay: [3H]Dopamine uptake, HEK-hDAT cells; assay type: cell-based
human 5-HT2A receptor [11] = target: T2, human 5-HT2A receptor; assay: [125I]DOI binding, HEK-5-HT2A cells
hSERT [12] = target: T3, hSERT; settings: read-out: [3H]Serotonin release EC50; HEK-hSERT cells; ref Gatch et al., 2011; cited from earlier work
human 5-HT1A receptor [13] = target: T6, human 5-HT1A receptor; assay: [3H]8-OH-DPAT binding, HEK-5-HT1A
human 5-HT2C receptor [14] = target: T5, human 5-HT2C receptor; assay: cell-based
hNET [15] = target: T1, hNET; assay: cell-based
hNET [16] = target: T1, hNET; assay: biochemical; assay type: binding

T1 sequence (P23975 whole entry): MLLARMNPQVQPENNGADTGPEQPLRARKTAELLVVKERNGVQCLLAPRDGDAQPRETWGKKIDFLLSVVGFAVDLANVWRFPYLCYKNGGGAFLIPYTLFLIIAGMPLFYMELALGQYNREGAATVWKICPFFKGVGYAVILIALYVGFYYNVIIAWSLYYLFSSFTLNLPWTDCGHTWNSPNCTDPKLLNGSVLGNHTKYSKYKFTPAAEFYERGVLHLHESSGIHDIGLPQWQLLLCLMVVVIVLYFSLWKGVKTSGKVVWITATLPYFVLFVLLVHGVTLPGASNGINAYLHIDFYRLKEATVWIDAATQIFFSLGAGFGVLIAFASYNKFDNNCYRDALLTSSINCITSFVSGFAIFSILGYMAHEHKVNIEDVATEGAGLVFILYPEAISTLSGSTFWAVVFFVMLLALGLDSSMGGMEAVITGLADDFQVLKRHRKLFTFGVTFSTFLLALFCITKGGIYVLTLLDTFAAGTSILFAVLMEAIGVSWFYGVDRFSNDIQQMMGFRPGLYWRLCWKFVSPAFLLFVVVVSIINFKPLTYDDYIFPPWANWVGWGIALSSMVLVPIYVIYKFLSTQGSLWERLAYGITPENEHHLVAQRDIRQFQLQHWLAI
T4 sequence (Q01959 whole entry): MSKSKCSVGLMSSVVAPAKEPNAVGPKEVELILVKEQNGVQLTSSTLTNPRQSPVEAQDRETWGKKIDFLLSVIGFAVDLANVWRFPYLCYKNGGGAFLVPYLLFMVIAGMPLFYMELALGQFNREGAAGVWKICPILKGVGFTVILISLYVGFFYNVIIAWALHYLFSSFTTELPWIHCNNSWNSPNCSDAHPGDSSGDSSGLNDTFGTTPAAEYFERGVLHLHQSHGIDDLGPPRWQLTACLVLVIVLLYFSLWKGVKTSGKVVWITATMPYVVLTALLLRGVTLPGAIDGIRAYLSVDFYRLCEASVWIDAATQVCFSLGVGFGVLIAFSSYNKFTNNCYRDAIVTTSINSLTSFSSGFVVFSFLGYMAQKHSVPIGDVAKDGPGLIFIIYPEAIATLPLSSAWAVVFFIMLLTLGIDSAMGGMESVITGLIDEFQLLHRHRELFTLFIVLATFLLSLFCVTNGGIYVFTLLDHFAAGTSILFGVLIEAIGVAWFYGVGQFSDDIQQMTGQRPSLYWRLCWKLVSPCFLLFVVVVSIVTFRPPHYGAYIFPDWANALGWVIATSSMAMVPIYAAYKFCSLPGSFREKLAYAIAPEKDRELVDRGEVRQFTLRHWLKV
T2 sequence (P28223 whole entry): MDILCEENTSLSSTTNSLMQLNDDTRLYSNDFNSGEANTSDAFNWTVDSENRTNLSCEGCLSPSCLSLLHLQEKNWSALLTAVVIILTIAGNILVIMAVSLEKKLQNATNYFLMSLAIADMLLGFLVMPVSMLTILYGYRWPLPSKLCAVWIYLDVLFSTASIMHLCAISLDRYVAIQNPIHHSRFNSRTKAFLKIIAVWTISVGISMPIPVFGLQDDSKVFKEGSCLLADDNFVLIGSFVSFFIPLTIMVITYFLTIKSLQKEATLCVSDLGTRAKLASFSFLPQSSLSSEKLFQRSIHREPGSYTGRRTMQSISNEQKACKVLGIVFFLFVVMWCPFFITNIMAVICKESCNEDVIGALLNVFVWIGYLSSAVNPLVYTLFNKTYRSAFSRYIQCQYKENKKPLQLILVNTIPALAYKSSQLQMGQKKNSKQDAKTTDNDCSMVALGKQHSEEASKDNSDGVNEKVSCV
T3 sequence (P31645 whole entry): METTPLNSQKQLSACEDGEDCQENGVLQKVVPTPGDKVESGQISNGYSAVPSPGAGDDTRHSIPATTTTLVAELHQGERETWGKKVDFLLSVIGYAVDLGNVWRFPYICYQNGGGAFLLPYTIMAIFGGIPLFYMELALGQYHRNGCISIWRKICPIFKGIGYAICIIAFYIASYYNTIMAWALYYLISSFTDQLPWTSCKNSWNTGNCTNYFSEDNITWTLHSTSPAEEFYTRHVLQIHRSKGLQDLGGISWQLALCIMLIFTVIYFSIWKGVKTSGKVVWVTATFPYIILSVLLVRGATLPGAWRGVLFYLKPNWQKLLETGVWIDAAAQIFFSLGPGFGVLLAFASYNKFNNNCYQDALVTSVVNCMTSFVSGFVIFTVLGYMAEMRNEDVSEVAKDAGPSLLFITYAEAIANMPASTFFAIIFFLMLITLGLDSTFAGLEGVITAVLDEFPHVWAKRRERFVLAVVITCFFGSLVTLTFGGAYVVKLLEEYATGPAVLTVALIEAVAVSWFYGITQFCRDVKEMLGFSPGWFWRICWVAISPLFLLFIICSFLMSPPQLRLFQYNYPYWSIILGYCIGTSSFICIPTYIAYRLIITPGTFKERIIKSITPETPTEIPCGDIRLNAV

CN[C@@H](C)Cc1ccccc1 [METH, methamphetamine, reference compound]
EC50 (hNET [1]): 0.067 ± 0.018 µM | EC50 (human 5-HT2A receptor [2]): > 1000 µM | Emax (human 5-HT2A receptor [2]; read-out: 5-HT2A Function IP-1 formation % maximal effect): < 3% | Emax (hNET [3]): 100% | Ki (hSERT [4]): 188 ± 14 µM | Ki (hDAT [5]): 4.75 ± 0.53 µM | EC50 (hDAT [6]): 0.97 ± 0.25 µM | Emax (hDAT [7]): 100% | Ki (human 5-HT2C receptor [8]): 10.1 ± 3.2 µM | EC50 (human 5-HT1A receptor [9]): 23.6 ± 8.1 µM | Emax (human 5-HT1A receptor [9]; read-out: 5-HT1A Function [35S]GTPγS Binding % maximal effect): 68 ± 11% | IC50 (hDAT [10]): 0.056 ± 0.015 µM | Ki (human 5-HT2A receptor [11]): 41.9 ± 9.6 µM | EC50 (hSERT [12]): 27.8 ± 7.7 µM | Ki (human 5-HT1A receptor [13]): 9.7 ± 1.8 µM | EC50 (human 5-HT2C receptor [14]): 74 ± 16 µM | Emax (human 5-HT2C receptor [14]; read-out: 5-HT2C Function IP-formation % maximal effect): 52 ± 10% | IC50 (hNET [15]): 0.023 ± 0.0055 µM | Ki (hNET [16]): 1.48 ± 0.13 µM
